Test results reported in patent US6548096B1, “Aspartyl dipeptide ester derivatives and sweeteners” (Ajinomoto Co., Inc., priority 1998, dated 2003).

Experiment: Sensory evaluation of sweetening potency relative to sugar
Type: in vivo
Conditions: for sweetening potency: Relative to sweetening potency of a 4% sucrose aqueous solution; for Sweetening potency (relative to sugar): times that of sugar, sensory evaluation
From the text: For example, the sweetening potency of N-[N-[3(3-methyl-4-hydroxyphenyl)propyl]-L-α-aspartyl]-L-phenylalanine 1-methyl ester was approximately 35,000 times that of sugar; that of N-[N-[3-(2-hydroxy-4-methylphenyl)propyl]-L-α-aspartyl]-L-α-phenylalanine 1-methyl ester was approximately 30,000 times that of sugar; that of N-[N-[3-(3-hydroxy-4-methoxyphenyl)propyl]-L-α-aspartyl]-L-phenylalanine 1-methyl ester was approximately 20,000 times that of sugar; that of N-[N-[3-(2-hydroxy-4-methoxyphenyl)propyl]-L-α-aspartyl]-L-phenylalanine 1-methyl ester was approximately 20,000 times that of sugar; that of N-[N-[3-(3-hydroxy-4-methylphenyl)propyl]-L-α-aspartyl]-L-phenylalanine 1-methyl ester was approximately 15,000 times that of sugar; that of N-(N-(3-(3-hydroxyphenyl)propyl]-L-α-aspartyl]-L-phenylalanine 1-methyl ester was approximately 8,000 times that of sugar; that of N-[N-(3-(4-methoxyphenyl)propyl]-L-α-aspartyl]-L-phenylalanine 1-methyl ester was approximately 6,500 times that of sugar; and that of N-(N-[3-(3-hydroxy-4-methoxyphenyl)propyl]-L-α-aspartyl]-L-tyrosine 1-methyl ester was approximately 16,000 times that of sugar.
The structures and the results of the sensory evaluation of aspartyl dipeptide derivatives represented by formula (2) are shown in Table 1. [drawing 3]

Compound	sweetening potency	Sweetening potency (relative to sugar)	also measured
CCOc1cc(OC)ccc1CCCN[C@@H](CC(=O)O)C(=O)N[C@@H](Cc1ccccc1)C(=O)OC [Compound 15, N-[N-[3-(2-Ethoxy-4-methoxyphenyl)propyl]-L-α-aspartyl]-L-phenylalanine 1-Methyl Ester]	2500	2,500 times	–
COC(=O)[C@H](Cc1ccccc1)NC(=O)[C@H](CC(=O)O)NCCCc1ccc(OCCO)cc1 [Compound 20, N-[N-[3-(4-(2-Hydroxyethoxy)phenyl)propyl]-L-α-aspartyl]-L-phenylalanine 1-Methyl Ester]	1000	1,000 times	–
COC(=O)[C@H](Cc1ccccc1)NC(=O)[C@H](CC(=O)O)NCCCc1cc(OC)ccc1O [Compound 12, N-[N-[3-(2-hydroxy-5-methoxyphenyl)propyl]-L-α-aspartyl]-L-phenylalanine 1-methyl ester]	1500	1,500 times	–
COC(=O)[C@H](Cc1ccccc1)NC(=O)[C@H](CC(=O)O)NCCCc1ccc(OC)c(C)c1 [Compound 18, N-[N-[3-(3-methyl-4-methoxyphenyl)propyl]-L-α-aspartyl]-L-phenylalanine 1-methyl ester]	8000	8,000 times	–
COC(=O)[C@H](Cc1ccccc1)NC(=O)[C@H](CC(=O)O)NCCCc1ccc(OC)cc1O [Compound 10, N-[N-[3-(2-hydroxy-4-methoxyphenyl)propyl]-L-α-aspartyl]-L-phenylalanine 1-methyl ester]	20000	–	Sweetening potency (relative to sugar) (listed as Example 11): 20,000 times
COC(=O)[C@H](Cc1ccccc1)NC(=O)[C@H](CC(=O)O)NCCCc1cccc(O)c1 [Compound 7, N-[N-[3-(3-hydroxyphenyl)propyl]-L-α-aspartyl]-L-phenylalanine 1-methyl ester]	8000	approximately 8,000 times	Sweetening potency (relative to sugar) (listed as Example 8): 8,000 times
CCOc1ccc(CCCN[C@@H](CC(=O)O)C(=O)N[C@@H](Cc2ccccc2)C(=O)OC)cc1 [Compound 6, N-[N-[3-(4-Ethoxyphenyl)propyl]-L-α-aspartyl]-L-phenylalanine 1-Methyl Ester]	1500	1,500 times	–
COC(=O)[C@H](Cc1ccccc1)NC(=O)[C@H](CC(=O)O)NCCCc1ccc(OC)cc1OC [Compound 14, N-[N-[3-(2,4-dimethoxyphenyl)propyl]-L-α-aspartyl]-L-phenylalanine 1-methyl ester]	4000	4,000 times	–
COC(=O)[C@H](Cc1ccccc1)NC(=O)[C@H](CC(=O)O)NCCCc1ccc(C)cc1 [Compound 21, N-[N-[3-(4-Methylphenyl)propyl]-L-α-aspartyl]-L-phenylalanine 1-Methyl Ester]	4000	4,000 times	–
COC(=O)[C@H](Cc1ccccc1)NC(=O)[C@H](CC(=O)O)NCCCc1ccc(C)cc1O [Compound 13, N-[N-[3-(2-hydroxy-4-methylphenyl)propyl]-L-α-aspartyl]-L-phenylalanine 1-methyl ester]	30000	–	Sweetening potency (relative to sugar) (listed as Example 14): 30,000 times; Sweetening potency (relative to sugar) (listed as N-[N-[3-(2-hydroxy-4-methylphenyl)propyl]-L-α-aspartyl]-L-α-phenylalanine 1-meth): approximately 30,000 times
COC(=O)[C@H](Cc1ccccc1)NC(=O)[C@H](CC(=O)O)NCCCc1ccc(C)c(O)c1	–	approximately 15,000 times	–
COC(=O)[C@H](Cc1ccccc1)NC(=O)[C@H](CC(=O)O)NCCCc1ccc(C)c(O)c1 [Compound 17, N-[N-[3-(3-hydroxy-4-methylphenyl)propyl]-L-α-aspartyl]-L-phenylalanine 1-methyl ester]	15000	–	Sweetening potency (relative to sugar) (listed as Example 18): 15,000 times
COC(=O)[C@H](Cc1ccccc1)NC(=O)[C@H](CC(=O)O)NCCCc1ccc(OC)cc1 [Compound 5, N-[N-[3-(4-methoxyphenyl)propyl]-L-α-aspartyl]-L-phenylalanine 1-methyl ester]	6500	–	Sweetening potency (relative to sugar) (listed as Example 5): 6,500 times; Sweetening potency (relative to sugar) (listed as N-[N-(3-(4-methoxyphenyl)propyl]-L-α-aspartyl]-L-phenylalanine 1-methyl ester)): approximately 6,500 times
COC(=O)[C@H](Cc1ccc(O)cc1)NC(=O)[C@H](CC(=O)O)NCCCc1ccc(OC)c(O)c1 [Compound 9, N-[N-[3-(3-hydroxy-4-methoxyphenyl)propyl]-L-α-aspartyl]-L-tyrosine 1-methyl ester]	16000	approximately 16,000 times	Sweetening potency (relative to sugar) (listed as Example 10): 16,000 times
COC(=O)[C@H](Cc1ccccc1)NC(=O)[C@H](CC(=O)O)NCCCc1ccc2c(c1)OCO2 [Compound 3, N-[N-[3-(3,4-methylenedioxyphenyl)propyl]-L-α-aspartyl]-L-phenylalanine 1-methyl ester]	5000	5,000 times	–
COC(=O)[C@H](Cc1ccccc1)NC(=O)[C@H](CC(=O)O)NCCCc1cc(OC)cc(OC)c1 [Compound 19, N-[N-[3-(3,5-dimethoxyphenyl)propyl]-L-α-aspartyl]-L-phenylalanine 1-methyl ester]	800	800 times	–
COC(=O)[C@H](Cc1ccccc1)NC(=O)[C@H](CC(=O)O)NCCCc1ccc(O)cc1 [Compound 4, N-[N-[3-(4-hydroxyphenyl)propyl]-L-α-aspartyl]-L-phenylalanine 1-methyl ester]	5000	5,000 times	–
COC(=O)[C@H](Cc1ccccc1)NC(=O)[C@H](CC(=O)O)NCCCc1ccc(O)c(C)c1 [Compound 16, N-[N-[3-(3-methyl-4-hydroxyphenyl)propyl]-L-α-aspartyl]-L-phenylalanine 1-methyl ester]	35000	approximately 35,000 times	Sweetening potency (relative to sugar) (listed as Example 17): 35,000 times
COC(=O)[C@H](Cc1ccccc1)NC(=O)[C@H](CC(=O)O)NCCCc1cccc(OC)c1O [Compound 11, N-[N-[3-(2-hydroxy-3-methoxyphenyl)propyl]-L-α-aspartyl]-L-phenylalanine 1-methyl ester]	10000	10,000 times	–
COC(=O)[C@H](Cc1ccccc1)NC(=O)[C@H](CC(=O)O)NCCCc1ccc(OC)cc1O	–	approximately 20,000 times	–
COC(=O)[C@H](Cc1ccccc1)NC(=O)[C@H](CC(=O)O)NCCCc1ccc(OC)c(OC)c1 [Compound 2, N-[N-[3-(3,4-dimethoxyphenyl)propyl]-L-α-aspartyl]-L-phenylalanine 1-methyl ester]	2500	2,500 times	–
